From ChEMBL document CHEMBL5236650, “Nonhydrolyzable d‑phenylalanine-benzoxazole derivatives retain antitubercular activity” (Bioorg Med Chem Lett, 2023)
In brackets after ≈: the same amount, converted by molar mass.

Key:
[1] = test system: Mycobacterium tuberculosis; test: Antitubercular activity against Mycobacterium tuberculosis H37Rv ATCC 27294 cultured in 7H9/ADC/Tw media assessed as inhibition of bacterial growth incubated for 7 days; type: functional; settings: H37Rv ATCC 27294, 168 h, time 7 day
[2] = test system: Mycobacterium tuberculosis; test: Antitubercular activity against Mycobacterium tuberculosis H37Rv ATCC 27294 cultured in GAST/Fe media assessed as inhibition of bacterial growth incubated for 7 days; type: functional; settings: H37Rv ATCC 27294, 168 h, time 7 day
[3] = Stability in mouse plasma assessed as half life; type: ADME, cell-free
[4] = Protein binding in mouse plasma assessed as free fraction; type: ADME, cell-free
[5] = Drug metabolism in mouse plasma assessed as 2-(4-methoxyphenyl)benzo[d]oxazol-5-amine formation; type: ADME, cell-free
[6] = test system: Mycobacterium tuberculosis; test: Antitubercular activity against Mycobacterium tuberculosis H37Rv ATCC 27294 cultured in 7H9/DPPC/casitone/Tx media assessed as inhibition of bacterial growth incubated for 7 days; type: functional; settings: H37Rv ATCC 27294, 168 h, time 7 day

Row | SMILES | MIC [1] [µM] | MIC [2] [µM] | half-life [3] [h] | fraction unbound [4] | Drug metabolism [5] | Fu [4] [%] | MIC [6] [µM]
1 | COc1ccc(-c2nc3cc(N)ccc3o2)cc1 | ≥ 12.5 |  |  |  |  |  | 
2 | N[C@@H](CC(=O)Nc1ccc2oc(-c3ccc(O)cc3)nc2c1)Cc1ccccc1 | 19 (≈ 7.36 µg/mL) | 19 (≈ 7.36 µg/mL) |  |  |  |  | 
3 | N[C@H](Cc1ccccc1)C(=O)Nc1ccc2oc(-c3ccc(O)cc3)nc2c1 | 1.2 (≈ 0.448 µg/mL) | 2.3 (≈ 0.859 µg/mL) |  |  |  |  | 
4 | C#CCOc1ccc(-c2nc3cc(NC(=O)[C@H](N)Cc4ccccc4)ccc3o2)cc1 | 1.2 (≈ 0.494 µg/mL) |  | 5 | < 0.004 |  |  | 
5 | COc1ccc(-c2nc3cc(NC(=O)[C@H](N)Cc4ccccc4)ccc3o2)cc1 | 1.56 (≈ 0.604 µg/mL) | 1.56 (≈ 0.604 µg/mL) | 0.417 |  | Metabolite_Detected |  | 
6 | COc1ccc(Cc2nc3cc(NC(=O)[C@H](N)Cc4ccccc4)ccc3o2)cc1 | 3.13 (≈ 1.26 µg/mL) | 3.13 (≈ 1.26 µg/mL) |  |  |  |  | 
7 | COc1ccc(-c2nc3cc(C(=O)NC[C@H](N)Cc4ccccc4)ccc3o2)cc1 | 6.25 (≈ 2.51 µg/mL) |  | > 4 |  |  | 1.2 | 6.25 (≈ 2.51 µg/mL)
8 | N[C@H](CCc1ccccc1)C(=O)Nc1ccc2oc(-c3ccc(O)cc3)nc2c1 | 3.13 (≈ 1.21 µg/mL) | 3.13 (≈ 1.21 µg/mL) |  |  |  |  | 
9 | N[C@H](Cc1ccccc1)C(=O)Nc1ccc2ocnc2c1 | > 50 | 25 (≈ 7.03 µg/mL) |  |  |  |  | 
10 | N[C@H](Cc1ccccc1)C(=O)Nc1ccc2oc(-c3ccc(OC(F)(F)F)cc3)nc2c1 | 3.13 (≈ 1.38 µg/mL) | 3.13 (≈ 1.38 µg/mL) |  |  |  |  | 
11 | CCOC(=O)COc1ccc(-c2nc3cc(NC(=O)[C@H](N)Cc4ccccc4)ccc3o2)cc1 | 3.13 (≈ 1.44 µg/mL) | 2.3 (≈ 1.06 µg/mL) |  |  |  |  | 
12 | COc1ccc(-c2nc3cc(NC(=S)[C@H](N)Cc4ccccc4)ccc3o2)cc1 | 37 (≈ 14.9 µg/mL) | 19 (≈ 7.67 µg/mL) |  |  |  |  | 
13 | COc1ccc(-c2nc3cc(-n4cc([C@H](N)Cc5ccccc5)nn4)ccc3o2)cc1 | 6.25 (≈ 2.57 µg/mL) | 6.25 (≈ 2.57 µg/mL) | > 4 |  |  | 0.65 | 
14 | COc1ccc(-c2nc3cc(NC[C@H](N)Cc4ccccc4)ccc3o2)cc1 | 12.5 (≈ 4.67 µg/mL) | 9.4 (≈ 3.51 µg/mL) | > 4 |  |  | < 0.1 | 
15 | COc1ccc(-c2nc3cc(NC(=O)[C@H](N)[C@@H](O)c4ccccc4)ccc3o2)cc1 | > 50 | 25 (≈ 10.1 µg/mL) |  |  |  |  | 
